Marks after values point to notes of the source that are not given here.
Columns and labels:
[1] = system: HUVEC; experiment: HUVEC endothelial proliferation in response to test compounds (MTS); format: cell-based
Procedure: (§1) Endothelial cell cultures: Cell lines used include HUVEC, EJG and MS1 and are routinely passaged 1 to 2 times weekly. Endothelial growth media (EGM) consists of Endothelial Base Media plus all supplements (Clonetics). For testing of compounds, endothelial cells were plated on 1% gelatin-coated plates. Prior to plating, gelatin solution was added to the plates for at least 10 minutes before plating, but excess solution removed immediately before adding cells. Sterile gelatin solution consists of 1% gelatin in dH2O that has been autoclaved. Endothelial cells form a characteristic cobblestone monolayer upon confluency. Typically, a T-75 plate contains 1 million microvascular cells upon confluency.
a. HUVEC Endothelial Proliferation in Response to Test compounds: HUVEC were cultured in 96-well plates and treated with a dilution series of test compounds for potential angiogenesis-related effects.
Day 0—Endothelium are plated at 5000 cells/well and at 10,000 cells/well.
Day1—Treatments are added in EGM culture medium in an appropriate dilution series (n=6 or 12). Controls included EGM alone, serum free medium (SFM), and EGM plus 0.5% DMSO.
Day 1-2, MTS/PMS solutions were added and plates read at 4 and 24 h after treatment.

[2] = system: chick chorioallantoic membrane; experiment: Chick chorioallantoic membrane (CAM) developmental angiogenesis assay; format: in vivo, chicken
Procedure: e. Chick chorioallantoic membrane assay (CAM assay): was performed on fertilized chicken eggs and used as a test for angiogenesis inhibition.
Approximately 4 dozen fertilized eggs were sprayed with 70% ETOH and placed in a 180 egg incubator (GQF Sportsman incubator). The eggs were incubated “rounded-side down” and were fully rotated along the vertical axis every 30 minutes at 37° C. under 90% relative humidity.
After 4 days, the eggs were placed upside down (round side up) for 5-10 minutes, before a round hole approximately 3 centimeters in diameter was created above the pointed end or “air hole” of the egg using sterile blunt-ended forceps (“deshelling”). The inner membrane was also removed, and the embryo was visible through this opening. A small portion of the outer membrane was then carefully removed using fine-tipped forceps in order to expose the CAM. Sterile Parafilm was placed over the de-shelled opening to create an airtight seal. The eggs were returned to the incubator (with no rotation) for 2 days.
Viable eggs were then treated with control and inhibitor compounds. Gelfoam™ gelatin sterile sponge (Upjohn) or 1-2 mm discs of methylcellulose saturated with physiological saline, buffer or an appropriate dilution of the compounds under investigation. The Gelfoam™ fragments of methylcellulose discs were added directly to the surface of the developing CAM. Care was taken not to add the treatment directly over a large vessel. The shells were marked in 3 places to aid in stereotactic localization of the treatment sponge or disc. An average of 6 eggs were included for each experimental condition. The treated eggs were returned to the incubator for 2 days.
The eggs were then assessed for blood vessel growth inhibition. Photomicrographs for records and visual examination were made using a Nikon dissecting microscope with an attached Nikon 35-mm camera body.

[3] = system: IEC-18 Epithelium; experiment: Matrigel invasion assay, IEC-18; format: cell-based; settings: 10 μm, 24 h, control 16.8
Procedure: (§2) c. Invasion Assays: Invasion of cells into surrounding tissue is a hallmark property of tissue remodeling. Tissue remodeling occurs during most pathological progression, including tumor progression, angiogenesis and during normal processes such as wound healing. The following invasion assays were performed using Biocoat® Cell Environments™ Matrigel Invasion Chamber 24-Well Plate Size (Becton Dickinson). The invasion chambers can be used to assess the ability of a cell to traverse an extracellular matrix under a variety of conditions. The chambers consist of a 24 well plate and […] that can be suspended in each well and act as an upper chamber. Cells place in the upper chamber insert must invade through a matrix in order to enter the lower chamber.
(§3) Cells were pre-labeled with ^3H-thymidine overnight. Typically, 5×10^5 cells were cultured overnight in 5 mls of serum-containing media spiked with 200 μl of thymidine stock solution. Cells were scraped off of the flask substratum and gently pipetted up and down to achieve single cell suspension in the medium. […]
(§4) After an incubation period of 24 h, media was carefully removed from the upper chamber insert and saved for scintillation counting. […] The relative amount of cell invasion was calculated by adding counts from the filters and lower chambers and dividing this sum by the total counts added initially to the upper chambers. […]

[4] = system: Lewis Lung cell line; settings: cells inoculated subcutaneously in rear flank of mice, compound i.p. daily
Procedure: Anti-tumour efficacy and dose response in allograft and xenograft models. Cell lines were selected from an in vitro assay based on ILK expression, and growth curves characterized in vivo. Preliminary tests were performed with the Lewis Lung cell line in a murine allograft tumor model. In parallel, human xenograft tumor lines were characterized.
Cells were inoculated subcutaneously in the rear flank of mice, and the test compound was administered i.p. daily. Tumors were measured and the size calculated, with the objective being a decrease in tumor growth compared to the controls.

[5] = system: HUVEC; experiment: 3H-Thymidine incorporation proliferation assay; format: cell-based; settings: 10 μm
Procedure: as §1
b. Thymidine incorporation proliferation assay: Cells were plated out and grown overnight. The next day the test compound or controls were added to the plates, along with diluted ^3H-thymidine added to a final concentration of 0.1 μCi/well, and the plates were incubated. After 24 h, the plates were spun down 1000 g for 10 min (for non-adherent cells) before removing the PBS. A volume of 120 μl of the scintillant fluid was added to each of the wells, and the plate was read.

[6] = system: IEC-18-13 Epithelium; experiment: Matrigel invasion assay, IEC-18-13; format: cell-based; settings: 10 μm, 24 h, control 34.9
Procedure: as §2, §3, §4

[7] = HUVEC in log phase growth, 5 μm
[8] = HUVEC in log phase growth, 10 μm
[9] = HUVEC in log phase growth, 20 μm

NC(=O)c1nnsc1Nc1ccccc1 [KP-15807, 5-Phenylamino-[1,2,3]thiadiazole-4-carboxylicacid amide]
melting point: 195 to 197 °C | MTS Relative Absorbance 4 h [1, 7]: 1.26 +/− 0.17 | MTS Relative Absorbance 24 h [1, 7]: 1.22 +/− 0.09 | MTS Relative Absorbance 4 h [1, 8]: 1.31 +/− 0.09 | MTS Relative Absorbance 24 h [1, 8]: 1.24 +/− 0.04 | MTS Relative Absorbance 4 h [1, 9]: 1.25 +/− 0.03 | MTS Relative Absorbance 24 h [1, 9]: 1.21 +/− 0.05 | MTS Relative Absorbance 4 h ([1]; HUVEC post-confluent, 5 μm): 2.06 +/− 0.20 | MTS Relative Absorbance 24 h ([1]; HUVEC post-confluent, 5 μm): 1.55 +/− 0.17 | MTS Relative Absorbance 4 h ([1]; HUVEC post-confluent, 10 μm): 2.30 +/− 0.05 | MTS Relative Absorbance 24 h ([1]; HUVEC post-confluent, 10 μm): 1.62 +/− 0.12 | MTS Relative Absorbance 4 h ([1]; HUVEC post-confluent, 20 μm): 2.52 +/− 0.05 | MTS Relative Absorbance 24 h ([1]; HUVEC post-confluent, 20 μm): 1.71 +/− 0.02 | % Inhibition ([2]; 5 μm): 60% | % Inhibition ([2]; 10 μm): 75% | % Inhibition ([2]; 20 μm): 85% | % Cell Invasion [3]: 9% | tumor growth compared to control [4]: succeeded in reducing tumor growth compared to control | 3H-Thymidine incorporation at 24 h ([5]; HUVEC in log phase growth): 746 +/− 200 | 3H-Thymidine incorporation at 48 h ([5]; HUVEC in log phase growth): 1251 +/− 117 | 3H-Thymidine incorporation at 24 h ([5]; HUVEC post-confluent): 571 +/− 86 | 3H-Thymidine incorporation at 48 h ([5]; HUVEC post-confluent): 452 +/− 71* | % Cell Invasion [6]: 8%
